Data as given in patent US12077503B2, “Substituted cyclic amides and their use as herbicides” (FMC CORPORATION, priority 2015, dated 2024).

How the values were obtained:
Assay type in all cases: in vivo
corn (Zea mays) [1] = assay: Test G Post-Emergence Protocol; details: Zea mays, post-emergence, 312 h; for plant injury at 15.625 g/ha: 15.625 g ai/ha, evaluated after 13 days (100=total damage to plant; 0=no damage to plant), read-out: Corn damage rating; for plant injury at 62.5 g/ha: 62.5 g ai/ha, read-out: Corn damage rating (100=total damage to plant; 0=no damage to plant); for plant injury at 62.5 g/ha / plant injury at 250 g/ha: evaluated after 13 days; for plant injury at 250 g/ha: 250 g ai/ha, read-out: damage to plant, Corn (100=total damage to plant; 0=no damage to plant)
Procedure, shortened: (§1)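 Sow in soil; grow 8 d (24/16 °C, 14 h light, 65% humidity); spray 15.625/62.5/250 g/ha in acetone:water 50:50 + 0.5% Tween 20; grow on, water twice daily; score damage 0–100 at 13 d.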

[2] = test system: redroot pigweed (Amaranthus retroflexus); assay: Test G Post-Emergence Protocol; details: Amaranthus retroflexus, post-emergence, 312 h; for pest or weed control at 15.625 g/ha: 15.625 g ai/ha, evaluated after 13 days (100=total damage to plant; 0=no damage to plant), read-out: Pigweed, Redroot damage rating; for pest or weed control at 62.5 g/ha: 62.5 g ai/ha, read-out: Pigweed, Redroot damage rating (100=total damage to plant; 0=no damage to plant); for pest or weed control at 62.5 g/ha / pest or weed control at 250 g/ha: evaluated after 13 days; for pest or weed control at 250 g/ha: 250 g ai/ha, read-out: damage to plant, Pigweed, Redroot (100=total damage to plant; 0=no damage to plant)
Procedure, shortened: as §1

[3] = test system: barnyardgrass (Echinochloa crus-galli); assay: Test G Post-Emergence Protocol; details: Echinochloa crus-galli, post-emergence, 312 h; for pest or weed control at 15.625 g/ha: 15.625 g ai/ha, evaluated after 13 days (100=total damage to plant; 0=no damage to plant), read-out: Barnyardgrass damage rating; for pest or weed control at 62.5 g/ha: 62.5 g ai/ha, read-out: Barnyardgrass damage rating (100=total damage to plant; 0=no damage to plant); for pest or weed control at 62.5 g/ha / pest or weed control at 250 g/ha: evaluated after 13 days; for pest or weed control at 250 g/ha: 250 g ai/ha, read-out: damage to plant, Barnyardgrass (100=total damage to plant; 0=no damage to plant)
Procedure, shortened: as §1

[4] = test system: giant foxtail (Setaria faberi); assay: Test G Post-Emergence Protocol; details: Setaria faberi, post-emergence, 312 h; for pest or weed control at 15.625 g/ha: 15.625 g ai/ha, evaluated after 13 days (100=total damage to plant; 0=no damage to plant), read-out: Foxtail, Giant damage rating; for pest or weed control at 62.5 g/ha: 62.5 g ai/ha, read-out: Foxtail, Giant damage rating (100=total damage to plant; 0=no damage to plant); for pest or weed control at 62.5 g/ha / pest or weed control at 250 g/ha: evaluated after 13 days; for pest or weed control at 250 g/ha: 250 g ai/ha, read-out: damage to plant, Foxtail, Giant (100=total damage to plant; 0=no damage to plant)
Procedure, shortened: as §1

[5] = test system: ivy-leaved morning glory (Ipomoea hederacea); assay: Test G Post-Emergence Protocol; details: Ipomoea, post-emergence, 312 h; for pest or weed control at 15.625 g/ha: 15.625 g ai/ha, evaluated after 13 days (100=total damage to plant; 0=no damage to plant), read-out: Morningglory, Ivy-leaved damage rating; for pest or weed control at 62.5 g/ha: 62.5 g ai/ha, read-out: Morningglory, Ivy-leaved damage rating (100=total damage to plant; 0=no damage to plant); for pest or weed control at 62.5 g/ha / pest or weed control at 250 g/ha: evaluated after 13 days; for pest or weed control at 250 g/ha: 250 g ai/ha, read-out: damage to plant, Morningglory, Ivy-leaved (100=total damage to plant; 0=no damage to plant)
Procedure, shortened: as §1

[6] = test system: velvetleaf (Abutilon theophrasti); assay: Test G Post-Emergence Protocol; details: Abutilon theophrasti, post-emergence, 312 h; for pest or weed control at 15.625 g/ha: 15.625 g ai/ha, evaluated after 13 days (100=total damage to plant; 0=no damage to plant), read-out: Velvetleaf damage rating; for pest or weed control at 62.5 g/ha: 62.5 g ai/ha, read-out: Velvetleaf damage rating (100=total damage to plant; 0=no damage to plant); for pest or weed control at 62.5 g/ha / pest or weed control at 250 g/ha: evaluated after 13 days; for pest or weed control at 250 g/ha: 250 g ai/ha, read-out: damage to plant, Velvetleaf (100=total damage to plant; 0=no damage to plant)
Procedure, shortened: as §1

corn (Zea mays) [7] = assay: Test G Pre-Emergence Protocol; details: Zea mays, pre-emergence, 312 h, evaluated after 13 days; for plant injury at 15.625 g/ha: 15.625 g ai/ha; for plant injury at 15.625 g/ha / plant injury at 250 g/ha: read-out: Corn damage rating (100=total damage to plant; 0=no damage to plant); for plant injury at 62.5 g/ha: 62.5 g ai/ha, 100=total damage to plant, 0=no damage to plant, read-out: plant damage rating, Corn; for plant injury at 250 g/ha: 250 g ai/ha
Procedure, shortened: (§2)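 Visual injury (0–100) at day 13 after a single pre-emergence spray. Rates: 15.625, 62.5, 250 g/ha in acetone–water 50:50 with 0.5% Tween 20. Growth conditions: 24/16° C, 14 h light, 65% humidity.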

[8] = test system: redroot pigweed (Amaranthus retroflexus); assay: Test G Pre-Emergence Protocol; details: Amaranthus retroflexus, pre-emergence, 312 h, evaluated after 13 days; for pest or weed control at 15.625 g/ha: 15.625 g ai/ha; for pest or weed control at 15.625 g/ha / pest or weed control at 250 g/ha: read-out: Pigweed, Redroot damage rating (100=total damage to plant; 0=no damage to plant); for pest or weed control at 62.5 g/ha: 62.5 g ai/ha, 100=total damage to plant, 0=no damage to plant, read-out: plant damage rating, Pigweed, Redroot; for pest or weed control at 250 g/ha: 250 g ai/ha
Procedure, shortened: as §2

[9] = test system: barnyardgrass (Echinochloa crus-galli); assay: Test G Pre-Emergence Protocol; details: Echinochloa crus-galli, pre-emergence, 312 h, evaluated after 13 days; for pest or weed control at 15.625 g/ha: 15.625 g ai/ha, read-out: Barnyard grass damage rating (100=total damage to plant; 0=no damage to plant); for pest or weed control at 62.5 g/ha: 62.5 g ai/ha, 100=total damage to plant, 0=no damage to plant, read-out: plant damage rating, Barnyardgrass; for pest or weed control at 250 g/ha: 250 g ai/ha, read-out: Barnyardgrass damage rating (100=total damage to plant; 0=no damage to plant)
Procedure, shortened: as §2

[10] = test system: giant foxtail (Setaria faberi); assay: Test G Pre-Emergence Protocol; details: Setaria faberi, pre-emergence, 312 h, evaluated after 13 days; for pest or weed control at 15.625 g/ha: 15.625 g ai/ha; for pest or weed control at 15.625 g/ha / pest or weed control at 250 g/ha: read-out: Foxtail, Giant damage rating (100=total damage to plant; 0=no damage to plant); for pest or weed control at 62.5 g/ha: 62.5 g ai/ha, 100=total damage to plant, 0=no damage to plant, read-out: plant damage rating, Foxtail, Giant; for pest or weed control at 250 g/ha: 250 g ai/ha
Procedure, shortened: as §2

[11] = test system: ivy-leaved morning glory (Ipomoea hederacea); assay: Test G Pre-Emergence Protocol; details: Ipomoea, pre-emergence, 312 h, evaluated after 13 days; for pest or weed control at 15.625 g/ha: 15.625 g ai/ha, read-out: Morning-glory, Ivy-leaved damage rating (100=total damage to plant; 0=no damage to plant); for pest or weed control at 62.5 g/ha: 62.5 g ai/ha, 100=total damage to plant, 0=no damage to plant, read-out: plant damage rating, Morningglory, Ivy-leaved; for pest or weed control at 250 g/ha: 250 g ai/ha, read-out: Morningglory, Ivy-leaved damage rating (100=total damage to plant; 0=no damage to plant)
Procedure, shortened: as §2

[12] = test system: velvetleaf (Abutilon theophrasti); assay: Test G Pre-Emergence Protocol; details: Abutilon theophrasti, pre-emergence, 312 h, evaluated after 13 days; for pest or weed control at 15.625 g/ha: 15.625 g ai/ha; for pest or weed control at 15.625 g/ha / pest or weed control at 250 g/ha: read-out: Velvetleaf damage rating (100=total damage to plant; 0=no damage to plant); for pest or weed control at 62.5 g/ha: 62.5 g ai/ha, 100=total damage to plant, 0=no damage to plant, read-out: plant damage rating, Velvetleaf; for pest or weed control at 250 g/ha: 250 g ai/ha
Procedure, shortened: as §2

Row | SMILES | plant injury at 15.625 g/ha (corn (Zea mays) [1]) | plant injury at 62.5 g/ha (corn (Zea mays) [1]) | plant injury at 250 g/ha (corn (Zea mays) [1]) | pest or weed control at 15.625 g/ha [2] | pest or weed control at 62.5 g/ha [2] | pest or weed control at 250 g/ha [2] | pest or weed control at 15.625 g/ha [3] | pest or weed control at 62.5 g/ha [3] | pest or weed control at 250 g/ha [3] | pest or weed control at 15.625 g/ha [4] | pest or weed control at 62.5 g/ha [4] | pest or weed control at 250 g/ha [4] | pest or weed control at 15.625 g/ha [5] | pest or weed control at 62.5 g/ha [5] | pest or weed control at 250 g/ha [5] | pest or weed control at 15.625 g/ha [6] | pest or weed control at 62.5 g/ha [6] | pest or weed control at 250 g/ha [6] | plant injury at 15.625 g/ha (corn (Zea mays) [7]) | plant injury at 62.5 g/ha (corn (Zea mays) [7]) | further results
1 | Cc1nc(NC(=O)[C@@H]2C(=O)N(C)C[C@H]2c2ccc(C(F)(F)F)cc2)ccc1F (racemic) [Compound 1613] | 0% | 0% | 0% | 0% | 50% | 60% | 0% | 20% | 60% | 20% | 70% | 80% | 0% | 0% | 0% | 0% | 20% | 30% | 0% | 0% | plant injury at 250 g/ha (corn (Zea mays) [7]): 0%; pest or weed control at 15.625 g/ha [8]: 0%; pest or weed control at 62.5 g/ha [8]: 0%; pest or weed control at 250 g/ha [8]: 10%; pest or weed control at 15.625 g/ha [9]: 0%; pest or weed control at 62.5 g/ha [9]: 0%; pest or weed control at 250 g/ha [9]: 70%; pest or weed control at 15.625 g/ha [10]: 0%; pest or weed control at 62.5 g/ha [10]: 50%; pest or weed control at 250 g/ha [10]: 90%; pest or weed control at 15.625 g/ha [11]: 0%; pest or weed control at 62.5 g/ha [11]: 0%; pest or weed control at 250 g/ha [11]: 0%; pest or weed control at 15.625 g/ha [12]: 0%; pest or weed control at 62.5 g/ha [12]: 0%; pest or weed control at 250 g/ha [12]: 10%
2 | CN1C[C@@H](c2ccc(C(F)(F)F)cc2)[C@H](C(=O)Nc2ncc[nH]2)C1=O (racemic) [Compound 1536] | 0% | 0% | 0% | 0% | 0% | 0% | 0% | 0% | 0% | 0% | 0% | 0% | 0% | 0% | 0% | 0% | 0% | 0% | 0% | 0% | plant injury at 250 g/ha (corn (Zea mays) [7]): 0%; pest or weed control at 15.625 g/ha [8]: 0%; pest or weed control at 62.5 g/ha [8]: 0%; pest or weed control at 250 g/ha [8]: 0%; pest or weed control at 15.625 g/ha [9]: 0%; pest or weed control at 62.5 g/ha [9]: 0%; pest or weed control at 250 g/ha [9]: 0%; pest or weed control at 15.625 g/ha [10]: 0%; pest or weed control at 62.5 g/ha [10]: 0%; pest or weed control at 250 g/ha [10]: 0%; pest or weed control at 15.625 g/ha [11]: 0%; pest or weed control at 62.5 g/ha [11]: 0%; pest or weed control at 250 g/ha [11]: 0%; pest or weed control at 15.625 g/ha [12]: 0%; pest or weed control at 62.5 g/ha [12]: 0%; pest or weed control at 250 g/ha [12]: 0%
3 | CN1C[C@@H](c2ccc(C(F)(F)F)cc2)[C@H](C(=O)Nc2cccnc2Cl)C1=O (racemic) [Compound 1517] | 0% | 10% | 80% | 0% | 0% | 20% | 0% | 50% | 70% | 20% | 60% | 60% | 20% | 30% | 70% | 0% | 10% | 20% | 0% | 0% | plant injury at 250 g/ha (corn (Zea mays) [7]): 20%; pest or weed control at 15.625 g/ha [8]: 0%; pest or weed control at 62.5 g/ha [8]: 0%; pest or weed control at 250 g/ha [8]: 60%; pest or weed control at 15.625 g/ha [9]: 0%; pest or weed control at 62.5 g/ha [9]: 70%; pest or weed control at 250 g/ha [9]: 90%; pest or weed control at 15.625 g/ha [10]: 30%; pest or weed control at 62.5 g/ha [10]: 70%; pest or weed control at 250 g/ha [10]: 80%; pest or weed control at 15.625 g/ha [11]: 0%; pest or weed control at 62.5 g/ha [11]: 0%; pest or weed control at 250 g/ha [11]: 0%; pest or weed control at 15.625 g/ha [12]: 0%; pest or weed control at 62.5 g/ha [12]: 0%; pest or weed control at 250 g/ha [12]: 0%
